US10179770B2, “Quinolines derivatives as novel anticancer agents” (GENOSCIENCE PHARMA, priority 2013, dated 2019)

Key:
RPMI-8226 = assay: NCI-60 screen (SRB); format: cell-based; details: RPMI-8226 (Leukemia)
Procedure, shortened: (§1)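 A 48 h, five-concentration exposure in 5% FBS medium with SRB protein staining. Out-of-range values are reported as greater or less than the tested limits.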

HL-60 = assay: NCI-60 screen (SRB); format: cell-based; details: HL-60 (Leukemia)
Procedure, shortened: as §1

OVCAR-4 = assay: NCI-60 screen (SRB); format: cell-based; details: OVCAR-4 (Ovarian)
Procedure, shortened: as §1

SK-MEL-28 cell line = assay: Combination of XIX-3 and Zelboraf, Bliss independence model; format: cell-based, human; details: XIX-3 associated with Zelboraf, 72 h
Experimental: The human melanoma cell line SK-MEL-28 was cultured in Minimum Essential Medium (MEM) supplemented with 10% Fetal Bovine Serum and 1% Penicillin-Streptomycin and maintained at 37° C. with 5% CO2.
SK-MEL-28 cells were plated at 2,500 cells per well onto 96-well plates in 90 μL of media per well and were allowed to grow overnight before the assay. XIX-3 and Zelboraf, a compound used for treatment for BRAF V600E mutation-positive metastatic melanoma, were added at different concentrations (combinations of five concentrations of XIX-3 and six concentrations of Zelboraf) to each well, and cell cultures were incubated for 72 h. […] Cell outgrowth was measured using a […] Aqueous One Solution Cell Proliferation Assay (Promega) and a TECAN Sunrise plate reader.
In each experiment, each point represents the average of triplicates in cell culture. The effects of drug-drug combinations are evaluated in the Bliss independence model (Prichard M. N. and Shipman C. Jr. Antivir. Res. 1990 (14) 181-205; Prichard, M. L. et al. Antimicrob Agents Chemother 1993 (37) 540-545). The theoretical additive effect is calculated from the dose-response curves of individual compounds by the equation: Z=X+Y(1−X) (7) Where: • Z represents the total inhibition produced by the combination of drugs X and Y. • X and Y represent the inhibition produced by drugs X and Y alone, respectively. […]

HT29 cells = assay: Combination study with standard chemotherapy agents, Combination Index (Chou and Talalay); format: cell-based, human; details: preliminary results
Experimental: Anticancer drugs were tested around their EC50 in […] cell line, The general assay procedure is the same as described in example 53 for compound XIX-3. Loewe additivity model: The experimental data are analyzed by using CalcuSyn (Biosoft, Stapleford, UK), a computer program based on the method of Chou and Talalay. Briefly, the dose-effect curves for each drug or drug combination were converted to median-effect plots with CalcuSyn. Then, a combination index (CI) value for each experimental combination was calculated on the basis of the following equation: [formula] Where for n=2 (combination of 2 compounds): D1 and D2 are the doses of drug 1 and drug 2 that have x effect when each drug is used alone d1 and d2 are the doses of drug 1 and drug 2 that have the same x effect when they are used in combination. [table] [table]

[1] = Homo sapiens, read-out: LC50 (the source's name)

In the case of CCN(CC)C1CCN(C(C)c2cc(-c3ccccc3)nc3ccccc23)CC1.Cl.Cl (stereo not drawn) [XIX-3, 2-phenyl-4-{1-[4-(N,N-diethylamino)piperidin-1-yl]-eth-1-yl}quinoline dihydrochloride], the GI50 (RPMI-8226; Homo sapiens) is reported as 2 µM, the CC50 (RPMI-8226; [1]) is reported as 26 µM and the TGI (RPMI-8226) is reported as 5 µM. For the same molecule, the “Growth percent at 10 μM” value (RPMI-8226; 10 μM) was “++++ (cell growth % < 20)”, the TGI (HL-60) was 33 µM and the “Growth percent at 10 μM” value (HL-60; 10 μM) was “++ (cell growth 40 > % < 60)”. The GI50 (HL-60; Homo sapiens) was 17 µM, the CC50 (HL-60; [1]) was 66 µM and the GI50 (OVCAR-4; Homo sapiens) was 11 µM. For the same molecule, the CC50 (OVCAR-4; [1]) was 52 µM, the TGI (OVCAR-4) was 24 µM and the “Growth percent at 10 μM” value (OVCAR-4; 10 μM) was “++ (cell growth 40 > % < 60)”. For the same molecule, the “Combination effect on cell viability (Bliss independence model)” value (SK-MEL-28 cell line) was “additive effect (between −20% to +20% indicates additive effect)”, the “Combination effect with standard chemotherapy agents” value (HT29 cells; HT29 cells) was “Synergy Effect” and the “Combination Index (CI)” value (HT29 cells; XIX-3 at 18 μM in combination with well described anticancer drugs, HT-29) was under 1.
